From patent US5614554A, “Reverse transcriptase inhibitors and antiviral agents” (Nippon Flour Mills Co., Ltd., priority 1992, dated 1997)
“Also recorded” adds a separate entry of the source. Where two headings read alike, the source gives them in different places.

Legend:
[1] = molecular target: reverse transcriptase derived from AMV; assay: Reverse transcriptase inhibitory effect, AMV enzyme; format: biochemical, AMV (avian myeloblastosis virus); conditions: poly(A).oligo(dT)12-18, 37° C., 10 minutes
Experimental: (§1) 20 μl of reaction solution was prepared so as to comprise 50 mM of Tris-hydrochloric acid buffer solution (pH 8.5), 40 mM of KCl, 6 mM of MgCl2, 1 mM of dithiothreitol, 50 μg/ml of poly(A). oligo (dT)12-18, [α^-32 P] deoxythymidine triphosphate, reverse transcriptase and sodium L-tyrosine sulfate.
(§2) After the reaction solution was incubated at 37° C. for 10 minutes, the reaction solution was deposited on DE 81 filter (available from Whatman). The filter was then washed thoroughly with 5% aqueous solution of Na2 HPO4 and subsequently with water, ethanol and diethyl ether. Radiation of the filter was examined by scintillation counter and then the concentration which inhibits 50% of reverse transcriptase activity (IC50) was calculated.
(§3) The reverse transcriptases used in this test were those derived from AMV (avian myeloblastosis virus) and HIV.

Solvent solubility = format: physicochemical; conditions: sulfate
male mice of ICR = assay: Acute toxicity on mice; format: in vivo; conditions: intraperitoneally, 500 mg/kg, male ICR mice at age of 4 weeks
Experimental: Sodium L-tyrosine sulfate was intraperitoneally injected to male mice of ICR at age of 4 weeks at the dose of 500 mg/kg to examine an acute toxicity.

mice leukemia cell L1210 = assay: Influence on the proliferation of mice leukemia cell L1210; format: cell-based; conditions: 250 μg/ml, cultured for four days, compared with compound-free control
Experimental: To the culture of mice leukemia cell L1210, sodium L-tyrosine sulfate was added at the concentration of 250 μg/ml and then the mixture was cultured for four days.

[2] = molecular target: T1, reverse transcriptase derived from HIV (Human immunodeficiency virus type 1 group M subtype B, UniProt P04585); assay: Reverse transcriptase inhibitory effect, HIV enzyme; format: biochemical
T1 construct: the reverse transcriptase derived from HIV
Experimental: as §1, §2, §3

HTLV-IIIB = assay: Inhibitory effect on HIV-induced cell damage in infected MT-4 cells (MTT method); format: cell-based; conditions: Human immunodeficiency virus 1, IIIB, MT4, 120 h, read-out: Efficiency
Experimental: (§4) In this test, there were used human T cell strain MT-4 cells (Gann monogr., Vol. 28, pp219-228 (1982)), which was tranformed with HTLV-1 which is an etiogenic virus of adult T cell leukemia, and HTLV-IIIB which is one of HIV strains. This test was performed in accordance with the method of Pauwels et al. (Pauwels et al., J. Virol. Methods, Vol. 20, pp309-21 (1988)).
(§5) Immediately after MT-4 cells were infected with HTLV-IIIB [MOI (multiplicity of infection =the number of inoculated virus/the number of cells): 0.01], sodium L-tyrosine sulfate and the HTLV-IIB-infected MT-4 cells were added to a microtiter plate having 96 wells at a variety of concentrations of sodium L-tyrosine sulfate and the concentration of 2.5×10^4 cells/well, respectively. These samples were cultivated at 37° C. for five days with carbon dioxide incubator. According to MTT method, the number of survival cells was then determined by measuring an absorbance to calculate an efficiency.

[3] = Influence on the proliferation of T cells (non-infected MT-4 cells); format: cell-based; conditions: human, read-out: Survival rate
Experimental: as §4, §5
As in Test Example 1, there was determined the influence of sodium L-tyrosine sulfate on the proliferation of HTLV-IIIB-non-infected MT-4 cells and the survival rate of the cells was calculated.

SMILES	IC50 (concentration which inhibits 50% of reverse transcriptase activity) [1]	Solvent solubility (Solvent solubility; product of Synthesis Example 1 before purification)	Solvent solubility (Solvent solubility; product of Synthesis Example 1 purified by Sephadex LH-20)	Acute toxicity (male mice of ICR)	Inhibitory effect on the proliferation of L1210 (mice leukemia cell L1210)	IC50 [2]	inhibition at 0.32 µg/mL (HTLV-IIIB)	inhibition at 1.6 µg/mL (HTLV-IIIB)	inhibition at 8 µg/mL (HTLV-IIIB)	inhibition at 40 µg/mL (HTLV-IIIB)	inhibition at 200 µg/mL (HTLV-IIIB)	inhibition at 1000 µg/mL (HTLV-IIIB)	viability at 120 h ([3]; 0.32 μg/ml)	viability at 120 h ([3]; 1.6 μg/ml)	viability at 120 h ([3]; 8 μg/ml)	viability at 120 h ([3]; 40 μg/ml)	viability at 120 h ([3]; 200 μg/ml)	viability at 120 h ([3]; 1000 μg/ml)
N[C@@H](Cc1ccc(OS(=O)(=O)[O-])cc1)C(=O)O.[Na+]	230 µg/mL	soluble in water, methanol and dimethyl sulfoxide; also recorded: insoluble in acetone, ethylacetate, hexane and chloroform	soluble in water, methanol and dimethyl sulfoxide; also recorded: insoluble in acetone, ethylacetate, hexane and chloroform	not observed any remarkable toxicity	hardly any inhibitory effects on the proliferation													
N[C@@H](Cc1ccc(OS(=O)(=O)[O-])cc1)C(=O)O.[Na+] [sulfate]						127 µM	-5%	61%	116%	91%	124%	106%	98%	97%	110%	94%	120%	112%
